Data from patent US20180116993A1, “MODULATORS OF FARNESOID X RECEPTOR AND METHODS FOR THE USE THEREOF” (XIAMEN UNIVERSITY, priority 2015, published 2018).
Read-outs that look alike come from different tables or passages of the source.

Experiments:
[1] = test system: human hepatoma HepG2 cells; experiment: MTT cell viability assay, HepG2; type: cell-based; details: 48 h, read-out: Cell viability as a percentage of the cells treated with DMSO, HepG2
Outline: (§1)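 Cells cultured in DMEM with 10% FBS were treated with compounds at 20 uM or 40 uM. Viability was read by MTT and expressed as a percentage of DMSO-treated cells.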

[2] = test system: human colorectal adenocarcinoma HCT15 cells; experiment: MTT cell viability assay, HCT15; type: cell-based; details: 48 h, read-out: Cell viability as a percentage of the cells treated with DMSO, HCT15; for viability at 20 µM: HCT-15, 20 uM; for viability at 40 µM: HCT-15, 40 uM
Outline: as §1

[3] = test system: human cervical carcinoma Hela cells; experiment: MTT cell viability assay, Hela; type: cell-based; details: 48 h, read-out: Cell viability as a percentage of the cells treated with DMSO, Hela
Outline: as §1

[4] = target: T1, FXR ligand binding domain (LBD) (Homo sapiens, UniProt Q96RI1); experiment: AlphaScreen assay: FXR LBD recruitment of coregulator peptide motifs (SRC2-3, SRC1-2); type: biochemical
T1 construct: made in house
T1 sequence (Q96RI1 262-486 limits assumed): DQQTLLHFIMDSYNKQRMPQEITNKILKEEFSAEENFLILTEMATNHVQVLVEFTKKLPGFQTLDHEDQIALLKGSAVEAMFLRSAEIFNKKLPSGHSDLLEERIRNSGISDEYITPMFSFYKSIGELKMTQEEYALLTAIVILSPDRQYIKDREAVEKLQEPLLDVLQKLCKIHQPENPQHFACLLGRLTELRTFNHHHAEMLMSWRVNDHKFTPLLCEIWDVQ

[5] = test system: human breast cancer MCF7 cells; experiment: MTT cell viability assay, MCF-7; type: cell-based; details: 48 h, read-out: Cell viability as a percentage of the cells treated with DMSO, MCF-7
Outline: as §1

[6] = test system: RA-resistant human colon cancer HCT116 cells; experiment: MTT cell viability assay, HCT116; type: cell-based; details: 48 h, read-out: Cell viability as a percentage of the cells treated with DMSO, HCT116; for viability at 20 µM: HCT-116, 20 uM; for viability at 40 µM: HCT-116, 40 uM
Outline: as §1

full-length FXR = target: T2, full-length FXR (Homo sapiens, UniProt Q96RI1); experiment: Cell-based FXR transactivation, EcRE luciferase reporter in COS-7 cells; details: for Cell-based FXR transactivation Fold changes by 5 μM compound: positive: induction, minus: repression
T2 construct: The cells were co-transfected with plasmids encoding full-length FXR and the cognate luciferase reporter EcRE-Luc; expressed in transfected cells; host or cells: COS-7
T2 sequence (Q96RI1 1-486): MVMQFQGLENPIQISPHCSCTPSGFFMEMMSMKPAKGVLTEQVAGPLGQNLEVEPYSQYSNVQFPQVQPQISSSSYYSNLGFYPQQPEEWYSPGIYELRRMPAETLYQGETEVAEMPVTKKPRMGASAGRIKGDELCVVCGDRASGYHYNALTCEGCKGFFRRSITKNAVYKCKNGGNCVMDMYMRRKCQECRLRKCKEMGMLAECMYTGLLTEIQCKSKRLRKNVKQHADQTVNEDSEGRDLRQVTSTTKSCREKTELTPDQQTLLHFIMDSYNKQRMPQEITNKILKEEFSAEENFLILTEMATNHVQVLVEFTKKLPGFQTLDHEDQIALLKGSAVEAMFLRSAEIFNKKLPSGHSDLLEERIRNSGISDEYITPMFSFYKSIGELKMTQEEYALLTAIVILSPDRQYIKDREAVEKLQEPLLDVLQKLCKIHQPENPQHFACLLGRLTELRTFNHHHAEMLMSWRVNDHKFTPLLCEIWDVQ
Outline: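 COS-7 cells were transiently cotransfected with full-length FXR, EcRE-Luc reporter and a renilla control. Ligands were added 5 h after transfection, and cells were harvested 24 h later. Firefly luciferase was normalized to renilla in a dual-luciferase read-out.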

[7] = SRC1-2 peptide, Table 2, read-out: EC50 (μM) of FXR binding by AlphaScreen assay recruit SRC1-2
[8] = SRC2-3 peptide, Table 2, read-out: EC50 (μM) of FXR binding by AlphaScreen assay recruit SRC2-3
[9] = EcRE luciferase reporter, Table 2

EC50 [4, 7] | EC50 [4, 8] | Cell-based FXR transactivation Fold changes by 5 μM compound (full-length FXR; 5 μM compound, Table 2) | EC50 (full-length FXR; [9]) | EC50 ([4]; SRC1-2 peptide, Table 1, read-out: EC50 (μM) of FXR binding by AlphaScreen assay recruit SRC1-2) | EC50 ([4]; SRC2-3 peptide, Table 1, read-out: EC50 (μM) of FXR binding by AlphaScreen assay recruit SRC2-3) | fold induction at 5 µM (full-length FXR; 5 μM compound, EcRE luciferase reporter, Table 1) | EC50 (full-length FXR; EcRE luciferase reporter, Table 1) | SMILES | viability at 20 µM [1] | viability at 40 µM [1] | viability at 20 µM [2] | viability at 40 µM [2] | viability at 20 µM [3] | viability at 40 µM [3] | viability at 20 µM [5] | viability at 40 µM [5] | viability at 20 µM [6] | viability at 40 µM [6]
< 0.5 µM | < 0.5 µM | 3 | < 1000 nM |  |  |  |  | O=C(OC1CCC2CCCCC2C1)c1ccc(O)cc1 (stereo not drawn) [XD-28, decahydro-naphthalen-2-yl 4-hydroxy-benzoate] | 100 ± 4% | 96 ± 4% | 99 ± 4% | 81 ± 4% | 94 ± 4% | 92 ± 4% | 100 ± 4% | 98 ± 4% | 100 ± 4% | 88 ± 4%
1 to 10 µM | 1 to 10 µM | 6 | 1000 to 10000 nM |  |  |  |  | CC1(C)C2CCC1(C)C(OC(=O)C1CCC(O)CC1)C2 (stereo not drawn) [XD-20, 1,7,7-trimethyl-bicyclo[2.2.1]-heptan-2-yl 4-hydroxy-cyclohexane-carboxylate] | 100 ± 5% | 100 ± 2% | 100 ± 4% | 84 ± 4% | 100 ± 5% | 96 ± 1% | 85% | 82 ± 1% | 79 ± 2% | 70 ± 7%
< 0.5 µM | < 0.5 µM | 3 | < 1000 nM |  |  |  |  | Cc1cc(C(=O)OC2CCC3CCCCC3C2)ccc1O (stereo not drawn) [XD-29, decahydro-naphthalen-2-yl 4-hydroxy-3-methylbenzoate] | 100 ± 2% | 98 ± 2% | 72 ± 2% | 52 ± 2% | 96 ± 2% | 90 ± 2% | 100 ± 2% | 88% | 100 ± 2% | 96 ± 2%
< 0.5 µM | < 0.5 µM | 3 | < 1000 nM |  |  |  |  | COc1cc(C(=O)OC2CCC3CCCCC3C2)ccc1O (stereo not drawn) [XD-30, decahydro-naphthalen-2-yl 4-hydroxy-3-methoxybenzoate] | 100 ± 2% | 94 ± 2% | 96 ± 2% | 77 ± 2% | 81% | 79 ± 2% | 100 ± 2% | 92 ± 2% | 100 ± 2% | 100 ± 2%
 |  |  |  | < 1 µM | < 1 µM | > 10 | < 1000 nM | COc1cc(C(=O)O[C@H]2C[C@H]3CC[C@]2(C)C3(C)C)ccc1O [Tschimganine] | 100 ± 1% | 97 ± 3% | 100 ± 1% | 80 ± 9% | 98 ± 2% | 97 ± 4% | 100 ± 3% | 99 ± 3% | 97 ± 1% | 90 ± 4%
1 to 10 µM | 1 to 10 µM | 4 | 1000 to 10000 nM |  |  |  |  | O=C(OC1CCCCCCCCCCC1)c1ccc(O)cc1 [XD-11, cyclododecyl 4-hydroxybenzoate] | 100 ± 1% | 97 ± 1% | 89 ± 2% | 78 ± 3% | 100 ± 3% | 100 ± 2% | 100 ± 7% | 100 ± 2% | 92 ± 2% | 70 ± 7%
< 1 µM | < 1 µM | >10 | < 1000 nM |  |  |  |  | CC1(C)C2CCC1(C)C(OC(=O)c1ccc(N)cc1)C2 (stereo not drawn) [XD-5, 1,7,7-trimethyl-bicyclo[2.2.1]-heptan-2-yl 4-aminobenzoate] | 95 ± 1% | 40 ± 1% | 80 ± 4% | 30 ± 4% | 93 ± 4% | 46 ± 3% | 100 ± 3% | 20% | 88 ± 2% | 30 ± 3%
< 1 µM | < 1 µM | 3 | < 1000 nM |  |  |  |  | Cc1cc(C(=O)OC2CCCCCCC2)ccc1O [XD-17, cyclooctyl 4-hydroxy-3-methylbenzoate] | 87% | 40 ± 1% | 52 ± 2% | 24 ± 3% | 83 ± 4% | 39 ± 1% | 91 ± 9% | 25% | 82 ± 2% | 27 ± 3%
 | 1 to 10 µM | 3 | 1000 to 10000 nM |  |  |  |  | COc1cc(C(=O)OC2CCC3CCCCC3C2)ccc1[N+](=O)[O-] (stereo not drawn) [XD-36, decahydro-naphthalen-2-yl 3-methoxy-4-nitrobenzoate] | 100 ± 3% | 81 ± 3% | 100 ± 3% | 92 ± 3% | 93 ± 3% | 85 ± 3% | 100 ± 3% | 87% | 93 ± 3% | 91 ± 3%
1 to 10 µM | 1 to 10 µM | >10 | 1000 to 10000 nM |  |  |  |  | CC1(C)C2CCC1(C)C(OC(=O)c1ccncc1)C2 (stereo not drawn) [XD-6, 1,7,7-trimethyl-bicyclo[2.2.1]-heptan-2-yl isonicotinate] | 99 ± 1% | 70 ± 2% | 57 ± 2% | 42 ± 3% | 100 ± 1% | 76 ± 1% | 100 ± 8% | 61% | 61 ± 1% | 45 ± 2%
< 1 µM | < 1 µM | >10 | < 1000 nM |  |  |  |  | Cc1cc(C(=O)OC2CC3CCC2(C)C3(C)C)ccc1N (stereo not drawn) [XD-4, 1,7,7-trimethyl-bicyclo[2.2.1]-heptan-2-yl 4-amino-3-methylbenzoate] | 90 ± 5% | 42 ± 1% | 79 ± 2% | 41 ± 3% | 95 ± 4% | 36 ± 2% | 100 ± 9% | 23% | 81 ± 2% | 27 ± 1%
< 0.5 µM | < 0.5 µM | −30 | < 1000 nM |  |  |  |  | Nc1ccc(C(=O)OC2CCC3CCCCC3C2)cc1 (stereo not drawn) [XD-23, decahydro-naphthalen-2-yl 4-aminobenzoate] | 100 ± 2% | 100 ± 2% | 81 ± 2% | 48 ± 2% | 100 ± 2% | 95 ± 3% | 100 ± 2% | 98 ± 2% | 75 ± 2% | 72 ± 2%
< 1 µM | < 1 µM | 5 | < 1000 nM |  |  |  |  | Nc1ccc(C(=O)OC2CCCCCCC2)cc1 [XD-16, cyclooctyl 4-aminobenzoate] |  |  |  |  |  |  |  |  |  | 
